Test results from ChEMBL document CHEMBL4507311, “Data for DCP probe A-1155463” (2021).

What was measured:
[1] = target: Tyrosine-protein kinase Yes (Homo sapiens) (UniProt P07947); settings: Compound concentration 1000.0 nM
[2] = target: Wee1-like protein kinase (Homo sapiens) (UniProt P30291); settings: Compound concentration 1000.0 nM
[3] = target: Inhibitor of nuclear factor kappa-B kinase subunit epsilon (Homo sapiens) (UniProt Q14164); settings: Compound concentration 1000.0 nM
[4] = target: LIM domain kinase 2 (Homo sapiens) (UniProt P53671); settings: Compound concentration 1000.0 nM
[5] = target: Histamine H4 receptor (Homo sapiens) (UniProt Q9H3N8); settings: Compound concentration 10.0 uM
[6] = target: Microtubule-associated serine/threonine-protein kinase 1 (Homo sapiens) (UniProt Q9Y2H9); settings: Compound concentration 1000.0 nM
[7] = target: Hepatocyte growth factor receptor (Homo sapiens) (UniProt P08581); settings: Compound concentration 1000.0 nM
[8] = target: Ephrin type-A receptor 2 (Homo sapiens) (UniProt P29317); settings: Compound concentration 1000.0 nM
[9] = target: Cyclin-dependent kinase 16 (Homo sapiens) (UniProt Q00536); settings: Compound concentration 1000.0 nM
[10] = target: Cyclin-dependent kinase 2 homolog (Plasmodium falciparum (isolate 3D7)) (UniProt P61075); settings: Compound concentration 1000.0 nM
[11] = test system: Receptor-type tyrosine-protein kinase FLT3 (Homo sapiens), P36888 [UNDEFINED MUTATION]; settings: Compound concentration 1000.0 nM
[12] = target: Cyclin-dependent kinase 2 (Homo sapiens) (UniProt P24941); settings: Compound concentration 1000.0 nM
[13] = test system: Tyrosine-protein kinase ABL1 (Homo sapiens), P00519 [Q252H]; settings: Compound concentration 1000.0 nM
[14] = target: Atypical kinase COQ8B, mitochondrial (Homo sapiens) (UniProt Q96D53); settings: Compound concentration 1000.0 nM
[15] = target: Ephrin type-B receptor 3 (Homo sapiens) (UniProt P54753); settings: Compound concentration 1000.0 nM
[16] = target: Serine/threonine-protein kinase Sgk2 (Homo sapiens) (UniProt Q9HBY8); settings: Compound concentration 1000.0 nM
[17] = test system: Mast/stem cell growth factor receptor Kit (Homo sapiens), P10721 [V559D,V654A]; settings: Compound concentration 1000.0 nM
[18] = target: Peripheral plasma membrane protein CASK (Homo sapiens) (UniProt O14936); settings: Compound concentration 1000.0 nM
[19] = target: Activin receptor type-1-like (Homo sapiens) (UniProt P37023); settings: Compound concentration 1000.0 nM
[20] = test system: Phosphatidylinositol 4,5-bisphosphate 3-kinase catalytic subunit alpha isoform (Homo sapiens), P42336 [E545A]; settings: Compound concentration 1000.0 nM
[21] = target: Serine/threonine-protein kinase MARK1 (Homo sapiens) (UniProt Q9P0L2); settings: Compound concentration 1000.0 nM
[22] = target: Cyclin-dependent kinase 14 (Homo sapiens) (UniProt O94921); settings: Compound concentration 1000.0 nM
[23] = target: Protein kinase C delta type (Homo sapiens) (UniProt Q05655); settings: Compound concentration 1000.0 nM
[24] = target: Phosphatidylinositol 4,5-bisphosphate 3-kinase catalytic subunit alpha isoform (Homo sapiens) (UniProt P42336); settings: Compound concentration 1000.0 nM
[25] = test system: Epidermal growth factor receptor (Homo sapiens), P00533 [G719C]; settings: Compound concentration 1000.0 nM
[26] = target: Calcium/calmodulin-dependent protein kinase kinase 2 (Homo sapiens) (UniProt Q96RR4); settings: Compound concentration 1000.0 nM
[27] = test system: Tyrosine-protein kinase ABL1 (Homo sapiens), P00519 [H396P]; settings: Compound concentration 1000.0 nM
[28] = target: BMP-2-inducible protein kinase (Homo sapiens) (UniProt Q9NSY1); settings: Compound concentration 1000.0 nM
[29] = target: Cyclin-dependent kinase 11A (Homo sapiens) (UniProt Q9UQ88); settings: Compound concentration 1000.0 nM
[30] = target: Tyrosine-protein kinase Srms (Homo sapiens) (UniProt Q9H3Y6); settings: Compound concentration 1000.0 nM
[31] = target: Proto-oncogene tyrosine-protein kinase ROS (Homo sapiens) (UniProt P08922); settings: Compound concentration 1000.0 nM
[32] = target: Serine/threonine-protein kinase N1 (Homo sapiens) (UniProt Q16512); settings: Compound concentration 1000.0 nM
[33] = target: TRAF2 and NCK-interacting protein kinase (Homo sapiens) (UniProt Q9UKE5); settings: Compound concentration 1000.0 nM
[34] = target: Serine/threonine-protein kinase PAK 6 (Homo sapiens) (UniProt Q9NQU5); settings: Compound concentration 1000.0 nM
[35] = target: Transient receptor potential cation channel subfamily M member 6 (Homo sapiens) (UniProt Q9BX84); settings: Compound concentration 1000.0 nM
[36] = test system: Epidermal growth factor receptor (Homo sapiens), P00533 [UNDEFINED MUTATION]; settings: Compound concentration 1000.0 nM
[37] = target: Ribosomal protein S6 kinase alpha-6 (Homo sapiens) (UniProt Q9UK32); settings: Compound concentration 1000.0 nM
[38] = target: Serine/threonine-protein kinase MRCK gamma (Homo sapiens) (UniProt Q6DT37); settings: Compound concentration 1000.0 nM
[39] = target: Serine/threonine-protein kinase Chk2 (Homo sapiens) (UniProt O96017); settings: Compound concentration 1000.0 nM
[40] = target: NUAK family SNF1-like kinase 2 (Homo sapiens) (UniProt Q9H093); settings: Compound concentration 1000.0 nM
[41] = target: Mitogen-activated protein kinase 6 (Homo sapiens) (UniProt Q16659); settings: Compound concentration 1000.0 nM
[42] = target: Serine/threonine-protein kinase Chk1 (Homo sapiens) (UniProt O14757); settings: Compound concentration 1000.0 nM
[43] = target: Casein kinase I isoform alpha-like (Homo sapiens) (UniProt Q8N752); settings: Compound concentration 1000.0 nM
[44] = target: Tyrosine-protein kinase HCK (Homo sapiens) (UniProt P08631); settings: Compound concentration 1000.0 nM
[45] = test system: Tyrosine-protein kinase ABL1 (Homo sapiens), P00519 [H396P]; settings: Compound concentration 1000.0 nM; remark: listed apart in the source

Sequence of Phosphatidylinositol 4,5-bisphosphate 3-kinase catalytic subunit alpha isoform (Homo sapiens) (P42336 whole entry, canonical isoform): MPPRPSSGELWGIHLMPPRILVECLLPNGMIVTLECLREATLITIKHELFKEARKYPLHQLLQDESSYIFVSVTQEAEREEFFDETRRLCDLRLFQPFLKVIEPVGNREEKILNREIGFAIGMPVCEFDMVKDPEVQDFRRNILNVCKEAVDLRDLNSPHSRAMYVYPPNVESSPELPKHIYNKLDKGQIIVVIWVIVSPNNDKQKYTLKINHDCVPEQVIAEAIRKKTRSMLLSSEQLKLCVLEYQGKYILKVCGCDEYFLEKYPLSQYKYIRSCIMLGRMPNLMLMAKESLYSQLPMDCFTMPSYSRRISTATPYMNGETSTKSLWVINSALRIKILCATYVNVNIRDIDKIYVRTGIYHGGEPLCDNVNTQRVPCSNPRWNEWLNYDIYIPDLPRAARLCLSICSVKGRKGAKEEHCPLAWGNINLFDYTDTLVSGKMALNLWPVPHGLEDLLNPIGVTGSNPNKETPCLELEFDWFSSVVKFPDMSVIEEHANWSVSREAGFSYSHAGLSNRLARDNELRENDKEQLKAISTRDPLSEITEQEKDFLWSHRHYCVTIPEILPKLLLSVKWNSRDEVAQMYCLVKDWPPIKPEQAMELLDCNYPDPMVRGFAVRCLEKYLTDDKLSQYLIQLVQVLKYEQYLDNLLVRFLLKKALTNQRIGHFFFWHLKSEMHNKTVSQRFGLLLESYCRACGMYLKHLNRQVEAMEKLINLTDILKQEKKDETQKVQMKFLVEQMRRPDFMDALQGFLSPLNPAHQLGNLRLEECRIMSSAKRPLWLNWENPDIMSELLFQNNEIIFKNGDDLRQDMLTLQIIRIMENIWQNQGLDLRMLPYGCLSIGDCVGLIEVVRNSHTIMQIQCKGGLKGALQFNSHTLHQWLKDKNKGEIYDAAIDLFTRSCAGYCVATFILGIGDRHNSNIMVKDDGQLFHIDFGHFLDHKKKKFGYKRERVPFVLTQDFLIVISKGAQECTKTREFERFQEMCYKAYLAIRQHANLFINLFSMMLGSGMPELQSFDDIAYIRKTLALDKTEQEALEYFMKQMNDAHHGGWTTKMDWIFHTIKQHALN
Sequence of BMP-2-inducible protein kinase (Homo sapiens) (Q9NSY1 whole entry, looked up): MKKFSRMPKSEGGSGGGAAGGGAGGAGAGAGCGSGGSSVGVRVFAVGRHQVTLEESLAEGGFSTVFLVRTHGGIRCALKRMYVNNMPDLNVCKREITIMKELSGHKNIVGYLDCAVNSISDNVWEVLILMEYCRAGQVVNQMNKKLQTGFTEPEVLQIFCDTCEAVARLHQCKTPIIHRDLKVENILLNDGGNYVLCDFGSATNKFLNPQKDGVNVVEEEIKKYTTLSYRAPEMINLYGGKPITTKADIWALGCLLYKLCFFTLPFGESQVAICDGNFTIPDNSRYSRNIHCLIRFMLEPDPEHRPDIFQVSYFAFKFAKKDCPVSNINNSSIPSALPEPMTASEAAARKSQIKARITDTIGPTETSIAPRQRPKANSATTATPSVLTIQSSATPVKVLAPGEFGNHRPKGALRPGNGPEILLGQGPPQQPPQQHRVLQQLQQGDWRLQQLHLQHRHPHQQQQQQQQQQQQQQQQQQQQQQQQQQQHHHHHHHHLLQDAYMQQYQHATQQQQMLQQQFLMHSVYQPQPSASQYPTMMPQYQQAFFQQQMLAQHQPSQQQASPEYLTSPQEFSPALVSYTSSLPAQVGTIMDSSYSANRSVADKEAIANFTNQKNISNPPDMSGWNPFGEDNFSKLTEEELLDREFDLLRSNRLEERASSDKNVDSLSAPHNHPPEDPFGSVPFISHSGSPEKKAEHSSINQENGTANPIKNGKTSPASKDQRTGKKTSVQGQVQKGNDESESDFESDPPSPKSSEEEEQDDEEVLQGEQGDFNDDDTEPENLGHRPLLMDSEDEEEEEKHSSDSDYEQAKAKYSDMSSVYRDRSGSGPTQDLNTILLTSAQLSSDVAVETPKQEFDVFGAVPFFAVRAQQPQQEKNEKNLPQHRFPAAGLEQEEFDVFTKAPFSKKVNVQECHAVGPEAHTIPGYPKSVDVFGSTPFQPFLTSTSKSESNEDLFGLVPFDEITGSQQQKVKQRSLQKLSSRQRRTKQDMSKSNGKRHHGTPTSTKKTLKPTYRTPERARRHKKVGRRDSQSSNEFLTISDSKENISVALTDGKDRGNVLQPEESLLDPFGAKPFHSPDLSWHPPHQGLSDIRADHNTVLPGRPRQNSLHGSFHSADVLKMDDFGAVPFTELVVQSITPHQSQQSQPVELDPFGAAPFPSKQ
Sequence of Mast/stem cell growth factor receptor Kit (Homo sapiens), P10721 [V559D,V654A] (P10721 whole entry V559D/V654A): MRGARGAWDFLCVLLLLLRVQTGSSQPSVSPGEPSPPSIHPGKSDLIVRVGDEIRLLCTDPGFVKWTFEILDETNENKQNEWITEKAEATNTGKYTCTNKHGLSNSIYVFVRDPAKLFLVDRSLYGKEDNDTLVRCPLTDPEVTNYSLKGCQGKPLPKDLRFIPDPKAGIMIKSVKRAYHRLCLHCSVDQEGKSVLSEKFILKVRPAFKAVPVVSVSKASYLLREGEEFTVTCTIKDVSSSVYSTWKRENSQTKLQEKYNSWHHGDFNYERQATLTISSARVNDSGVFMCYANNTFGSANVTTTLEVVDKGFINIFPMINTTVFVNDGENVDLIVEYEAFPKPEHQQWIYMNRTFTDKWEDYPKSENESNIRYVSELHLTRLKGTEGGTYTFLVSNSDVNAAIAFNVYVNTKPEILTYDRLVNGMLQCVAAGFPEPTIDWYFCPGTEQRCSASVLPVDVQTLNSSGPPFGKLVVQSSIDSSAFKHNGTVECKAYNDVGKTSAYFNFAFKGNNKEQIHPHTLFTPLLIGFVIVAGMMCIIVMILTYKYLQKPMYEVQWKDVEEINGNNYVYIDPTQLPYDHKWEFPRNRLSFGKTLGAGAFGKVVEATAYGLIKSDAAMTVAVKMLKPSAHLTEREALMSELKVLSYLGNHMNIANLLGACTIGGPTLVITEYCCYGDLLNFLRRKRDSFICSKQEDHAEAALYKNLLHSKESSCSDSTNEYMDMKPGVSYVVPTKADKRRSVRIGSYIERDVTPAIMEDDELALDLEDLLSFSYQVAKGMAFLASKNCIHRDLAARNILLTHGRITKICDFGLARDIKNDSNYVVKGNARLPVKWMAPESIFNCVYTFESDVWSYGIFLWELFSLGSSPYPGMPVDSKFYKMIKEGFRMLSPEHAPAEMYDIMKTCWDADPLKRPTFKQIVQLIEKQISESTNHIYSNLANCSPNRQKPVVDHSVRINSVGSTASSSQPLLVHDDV
Sequence of Mitogen-activated protein kinase 6 (Homo sapiens) (Q16659 whole entry): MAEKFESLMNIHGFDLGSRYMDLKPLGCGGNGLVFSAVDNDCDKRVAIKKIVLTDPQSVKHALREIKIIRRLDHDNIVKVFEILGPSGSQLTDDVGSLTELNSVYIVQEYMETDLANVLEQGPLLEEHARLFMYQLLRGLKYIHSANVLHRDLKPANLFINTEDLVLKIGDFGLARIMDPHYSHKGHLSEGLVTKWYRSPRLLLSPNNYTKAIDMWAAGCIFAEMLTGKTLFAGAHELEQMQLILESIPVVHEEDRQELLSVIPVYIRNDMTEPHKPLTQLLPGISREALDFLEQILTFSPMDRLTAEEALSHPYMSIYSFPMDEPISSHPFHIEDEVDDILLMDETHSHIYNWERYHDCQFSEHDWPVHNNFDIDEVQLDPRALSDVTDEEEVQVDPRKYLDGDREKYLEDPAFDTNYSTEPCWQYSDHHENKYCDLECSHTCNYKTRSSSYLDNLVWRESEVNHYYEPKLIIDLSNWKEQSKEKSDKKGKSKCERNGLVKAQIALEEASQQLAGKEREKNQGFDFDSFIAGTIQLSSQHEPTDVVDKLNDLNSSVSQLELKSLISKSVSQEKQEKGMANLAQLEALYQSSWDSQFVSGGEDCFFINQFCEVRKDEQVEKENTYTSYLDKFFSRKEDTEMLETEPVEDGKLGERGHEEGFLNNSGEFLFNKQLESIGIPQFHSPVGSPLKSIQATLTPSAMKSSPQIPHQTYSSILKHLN
Sequence of NUAK family SNF1-like kinase 2 (Homo sapiens) (Q9H093 whole entry): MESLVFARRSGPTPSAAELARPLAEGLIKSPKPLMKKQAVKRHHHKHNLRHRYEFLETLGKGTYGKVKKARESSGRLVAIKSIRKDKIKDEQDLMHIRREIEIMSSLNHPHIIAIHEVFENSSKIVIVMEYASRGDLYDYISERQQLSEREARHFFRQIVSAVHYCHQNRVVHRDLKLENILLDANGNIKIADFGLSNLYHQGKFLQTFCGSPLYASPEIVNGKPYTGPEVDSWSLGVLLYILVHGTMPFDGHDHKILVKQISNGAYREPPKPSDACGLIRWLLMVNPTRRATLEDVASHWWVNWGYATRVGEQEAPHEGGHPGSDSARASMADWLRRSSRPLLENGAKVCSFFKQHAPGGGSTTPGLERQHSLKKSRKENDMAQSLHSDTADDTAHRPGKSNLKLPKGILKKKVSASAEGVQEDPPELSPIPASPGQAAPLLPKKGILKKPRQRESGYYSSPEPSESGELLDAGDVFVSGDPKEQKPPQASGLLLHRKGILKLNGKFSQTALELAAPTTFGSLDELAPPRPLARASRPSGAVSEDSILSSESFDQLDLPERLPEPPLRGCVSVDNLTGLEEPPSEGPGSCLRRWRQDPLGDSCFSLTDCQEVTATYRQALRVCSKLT
Sequence of Casein kinase I isoform alpha-like (Homo sapiens) (Q8N752 whole entry, canonical isoform): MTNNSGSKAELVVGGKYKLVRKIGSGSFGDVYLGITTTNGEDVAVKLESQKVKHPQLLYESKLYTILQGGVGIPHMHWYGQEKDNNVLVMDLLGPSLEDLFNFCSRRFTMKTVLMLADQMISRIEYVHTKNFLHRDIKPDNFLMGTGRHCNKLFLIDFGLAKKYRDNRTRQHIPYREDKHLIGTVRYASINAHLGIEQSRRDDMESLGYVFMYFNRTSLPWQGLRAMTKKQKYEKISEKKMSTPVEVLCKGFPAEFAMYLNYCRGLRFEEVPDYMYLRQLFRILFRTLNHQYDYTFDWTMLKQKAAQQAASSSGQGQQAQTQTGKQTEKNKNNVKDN
Sequence of Phosphatidylinositol 4,5-bisphosphate 3-kinase catalytic subunit alpha isoform (Homo sapiens), P42336 [E545A] (P42336 whole entry E545A, canonical isoform): as the sequence (P42336 whole entry, canonical isoform) above, with E545A counted along it

CN(C)CC#Cc1ccc(OCCCc2sc(N3CCc4cccc(C(=O)Nc5nc6ccccc6s5)c4C3)nc2C(=O)O)c(F)c1 [A-1155463]
inactive: residual activity [1] 100% | residual activity [2] 100% | residual activity [3] 100% | residual activity [4] 96% | inhibition [5] 6.5% | residual activity [6] 89% | residual activity [7] 61% | residual activity [8] 92% | residual activity [9] 100% | residual activity [10] 100% | residual activity [11] 100% | residual activity [12] 100% | residual activity [13] 94% | residual activity [14] 99% | residual activity [15] 100% | residual activity [16] 100% | residual activity [17] 78% | residual activity [18] 100% | residual activity [19] 82% | residual activity [20] 100% | residual activity [21] 93% | residual activity [22] 100% | residual activity [23] 100% | residual activity [24] 89% | residual activity [25] 91% | residual activity [26] 100% | residual activity [27] 100% | residual activity [28] 97% | residual activity [29] 100% | residual activity [30] 100% | residual activity [31] 93% | residual activity [32] 91% | residual activity [33] 83% | residual activity [34] 100% | residual activity [35] 84% | residual activity [36] 86% | residual activity [37] 90% | residual activity [38] 90% | residual activity [39] 100% | residual activity [40] 82% | residual activity [41] 94% | residual activity [42] 89% | residual activity [43] 100% | residual activity [44] 100% | residual activity [45] 99%
